Entries after “also recorded” stand apart in the source; their conditions may differ.
Key:
smoking cessation = conditions: 200 mg/day; from 17 to 30%; cited from earlier work
cocaine detoxification = conditions: rats and human; cited from earlier work
[1] = system: cocaine-induced hyperactivity; assay: Cocaine interaction study in mice (cocaine-induced locomotion increase); type: in vivo, Swiss-Webster Mice; conditions: 100 mg/kg ip, cocaine 20 mg/kg ip
From the text: Typically, psychostimulant addictive drugs as amphetamine and cocaine induce an increase in locomotor activity in rodents and primate. Some compounds with anti-addictive potential properties can prevent the increase in locomotor activity induced by psychostimulant drugs. (Katz J L, Kopajtic T A, Myers K A, Mitkus R J, Chider M, Behavioral effects of cocaine: interactions with D1 dopaminergic antagonists and agonists in mice and squirrel monkeys. J Pharmacol Exp Ther. 1999 October; 291(1):265-79).
The effect of test compounds is evaluated in a mice model of cocaine-induced locomotion increase.
Subjects: Swiss-Webster Mice, Male
Apparatus: Automated Photocell Chambers
Drugs: Cocaine 20 mg/kg is administered ip, test compounds dissolved in vehicle are administered ip at different doses (10-100 mg/kg) right before cocaine.
Behavioral test; Animals (8 per experimental group) received ip injection of cocaine (20 mg/kg) or saline and either the test compounds (10-100 mg/kg ip) or their vehicle and locomotor activity is recorded for 1 hour. […]
Maximal effect: The 30 min time period in which cocaine (20 mg/kg) produces the maximal activity is used to determine test compound effect. […] The AD50 (dose that attenuates cocaine-induced stimulation by 50%) is determined from the linear regression analysis.

alcohol dependence = conditions: clinical study; cited from earlier work
[2] = system: patients with idiopathic RLS; assay: Open label RLS study, 2 week administration in 10 patients with idiopathic RLS; type: in vivo, human
Experimental: In an open label study conducted on 10 patients with idiopathic RLS, 2 week administration of (S)-(+)-2-[4-(3-Fluorobenzyloxy)-benzylamino]-propanamide 100 mg/die resulted efficacious in improving RLS symptoms. Patients were included in the study if they fulfilled the minimal diagnostic criteria according to the International RLS Study Group. Patients' symptoms had to interfere with sleep onset or maintenance for at least 6 months and at least 15 nights during the last 12 weeks, and they should have IRLS 10(International Restless Legs Syndrome) score equal to or greater than 15 at baseline assessment. Physical examination, biochemical and haematological laboratory tests and electrocardiogram were performed to ensure that selection criteria were fulfilled. Polysomnography was performed for 2 nights at baseline and 2 nights at the end of treatment, in order to verify the effects of (S)-(+)-2-[4-(3-Fluorobenzyloxy)benzylamino]propanamide on sleep. Efficacy was measured through the following evaluation scales: International Restless Legs Syndrome 10 (IRLS 10), Restless Legs Syndrome Quality of Life (RLS QoL), Work Productivity and Activity Impairment Questionnaire (WPAI RLS) and Clinical Global Impression (CGI part I and CGI part II).
Ten out of 10 patients enrolled were considered eligible for the efficacy analysis: ail of them completed the planned period of treatment of 14+3 days. […] As to the main disease, it was considered severe in 70% of patients according to CGI criteria and confirmed by IRLS-10 score, with an impact on daily activity, that could be quantified (according to WPAI-RLS, and RLS-QoLQ results) in about ⅓ of the usual performances.

[3] = 100 mg/die, 2 weeks, 10 patients

NCCNC(=O)c1ccc(Cl)cn1 [lazabemide]
percentage of smoking cessation (smoking cessation): 30%

C#CCN(C)[C@H](C)Cc1ccccc1 [Selegeline, selegiline, reference compound]
anti-reinforcing effect during cocaine detoxification (cocaine detoxification): moderate anti-reinforcing effect | effect on cocaine-induced hyperactivity (total locomotor activity) [1]: did not reverse

CC1(C)O[C@@H]2[C@@H](CO[C@@]3(COS(N)(=O)=O)OC(C)(C)O[C@@H]23)O1 [topiramate]
efficacy in the treatment of alcohol dependence (alcohol dependence): efficacious

C[C@H](NCc1ccc(OCc2cccc(F)c2)cc1)C(N)=O [(S)-(+)-2-[4-(3-Fluorobenzyloxy)-benzylamino]propanamide]
improvement of RLS symptoms ([2]; 100 mg/die, 2 week administration, 10 patients): efficacious; also recorded: significant improvement | adverse events [2, 3]: no adverse events | tolerability [2, 3]: well tolerated | CGI part II changes from previous visit: Minimally Improved ([2]; Final visit): 5 (50) N (%) | CGI part II changes from previous visit: Much Improved ([2]; Final visit): 2 (20) N (%) | CGI part II changes from previous visit: No change ([2]; Final visit): 1 (10) N (%) | CGI part II changes from previous visit: Very Much Improved ([2]; Final visit): 2 (20) N (%) | IRLS 10 Score, Impact, Mean ([2]; Final visit (baseline 4.20)): 3.00 | IRLS 10 Score, Associate Features, mean ([2]; Final visit (baseline 5.10)): 4.30 | IRLS 10 Score, Severity, mean ([2]; Final visit (baseline 7.00)): 6.00 | IRLS 10 Score, Diagnostic Features, mean ([2]; Final visit (baseline 11.20)): 8.50 | IRLS 10 Score, Total Score, mean ([2]; Final visit (baseline 27.50)): 21.80 | IRLS 10 Score, Diagnostic Features, changes ([2]; Final vs Baseline, p 0.002): −2.70 | IRLS 10 Score, Total Score, changes ([2]; Final vs Baseline, p 0.002): −5.70 | IRLS 10 Score, Impact, changes ([2]; Final vs Baseline, p 0.003): −1.20 | IRLS 10 Score, Severity, changes ([2]; Final vs Baseline, p 0.063): −1.00 | IRLS 10 Score, Associate Features, changes ([2]; Final vs Baseline, p 0.070): −0.80 | CGI part I: patients with stable disease ([2]; after 2 weeks): 40% | CGI part II: patients with improvement of any grading ([2]; after 2 weeks): 90% | CGI part II: patients with no changes ([2]; after 2 weeks): 10% | WPAI-RLS item 6 impairment of daily activities ([2]; after 2 weeks (from 34% at baseline), p=0.005, FIG. 3): 22% | Polysomnographic registration: PLM (Wake+Sleep) Index ([2]; after 2 weeks versus baseline, FIG. 4): statistically significant improvement versus baseline | Polysomnographic registration: PLM Sleep Index ([2]; after 2 weeks versus baseline, FIG. 5): statistically significant improvement versus baseline | Polysomnographic registration: PLM Wake Index ([2]; after 2 weeks versus baseline, FIG. 6): statistically significant improvement versus baseline | RLS-QoLQ total score ([2]; after 2 weeks vs baseline, p=0.002, FIG. 2): significant decrease | CGI part I: patients with improvement in disease situation ([2]; after 2 weeks, P=0,031): 60% | IRLS-10 scale total score, result in words ([2]; after 2 weeks, p=0.002): statistically significant improvement | safety profile ([2]; conclusion of the trial): good safety profile | effect on cocaine-induced hyperactivity (total locomotor activity) [1]: significantly decreased

— patent US8697738B2, “Alpha-aminoamide derivatives useful in the treatment of addictive disorders” (Newron Pharmaceuticals S.p.A., priority 2004, dated 2014)
